Each compound was assayed on Saccharomyces cerevisiae (assay: Antifungal activity against DNA-damage repair genes deficient Saccharomyces cerevisiae RS 321 after 48 hrs by mechanism based bioassay).
Type: functional
Compound CC(=O)OC/C1=C\C[C@@]2(C)CC(=O)C(=C(C)C)[C@@H]2CC[C@]2(C)O[C@H]2CC1 has an IC12 of 1800 µg/mL. In the case of CC(C)=C1C(=O)C[C@]2(C)C/C=C(\C)CC[C@@H]3O[C@@]3(C)CC[C@@H]12, the IC12 is reported as 1500 µg/mL. C=C(C)C1C/C=C(\C)CC[C@H](O)[C@@]2(C)CCC=C(CC1)C(=O)O2 (stereo partly specified) was tested, and the IC12 was > 3000 µg/mL. C/C1=C\C[C@@]2(C)C(=O)C=C(C(C)C)[C@@H]2CC[C@]2(C)O[C@H]2CC1 was tested, and the IC12 was 2600 µg/mL. In the case of CC(=O)O[C@H]1C/C(C)=C/C[C@@]2(C)CC(=O)C(=C(C)C)[C@@H]2CC[C@]2(C)O[C@@H]12, the IC12 is reported as > 3000 µg/mL. CC(=O)OCC(COC(C)=O)=C1C=C[C@]2(C)C/C=C(\C)CC[C@@H]3O[C@@]3(C)CC[C@@H]12 was tested, and the IC12 was > 3000 µg/mL.
